In patent publication US10130713B2, “Cocrystalline DHEA formulations” (University of Houston System, priority 2013, dated 2018):
In brackets after ≈: the same amount, converted by molar mass. Like-named read-outs stand apart in the source and are kept apart here.

Tests used:
Format in all cases: physicochemical
[1] = Dissolution study with DHEA concentration measured by HPLC over time; settings: for solubility: aqueous dissolution study (pH 6.8 buffer, ambient temperature)
Description: High performance liquid chromatography (HPLC) analyses were carried out on an Agilent 1100 series instrument equipped with a UV detector using the following materials and operating parameters:
Calibration data used previously and standards analyzed prior to the samples were used to generate concentrations from peak areas.
At selected time points (10 minutes, 30 minutes, 1 hour, 2 hours, and 5 hours) the slurry was centrifuged and 700 μL of the liquid phase was withdrawn and passed through a 0.5 μm PTFE filter. The filtrate was concentrated in a purge of dry air until all the water evaporated, leaving a solid that was analyzed by HPLC. […] The pH of the filtrate was measured using a Thermo Scientific Orion 3 Star pH meter. The collected solid was analyzed by XRPD. […]
Further dissolution studies with concentration measurements at 10 minutes, 30 minutes, 1 hour, 2 hours, 5 hours, and overnight were conducted. Three such experiments were carried out, using DHEA polymorph form I (FI), the DHEA/D-fructose cocrystal, and the DHEA/glutaric acid cocrystal. […] All of the data are summarized in FIG. 10 through FIG. 14 and the data are plotted in FIG. 15 through FIG. 19.
Note that in each of the plots shown in […] the results of two experiments (time points at <10 min and time points at >10 minutes) are shown on one graph. In order to better visualize the curves, the x axes are in logarithmic scales (FIGS. 15-17). The tables shown in FIGS. 12 and 13 were derived from single experiments having time points at <10 minutes. The x axes on those plots are in linear scales (FIGS. 18 and 19).

[2] = Slurry of DHEA in simulated intestinal fluid, solid form by XRPD; settings: about 3 hrs at room temperature, XRPD 3171
[3] = Dissolution of formulation slurries (Plasdone S630 + Polysorbate 80) in simulated intestinal fluid; settings: simulated intestinal fluid plus aqueous formulation slurry, aqueous with cosolvent or surfactant or cyclodextrin, thermodynamic from solid; SIF plus water containing 2% Plasdone S630 and 1% Polysorbate 80, 37° C.; read-out: equilibrium solubility in formulation/SIF system
Description: Simulated intestinal fluid (SIF) was prepared by dissolving 21.6 mg of sodium hydroxide, 168.8 mg of sodium dihydrogen phosphate dihydrate, 311.6 mg of sodium chloride, and 113.0 mg of SIF Powder Original (Biorelevant) in 50 mL of water. A 100-mL, round-bottom flask was charged with 10 mL of SIF and a stir bar. The flask was placed in a 37° C. bath and stirring was begun. A 20-mL vial was charged with 10 mL of water and placed in a 37° C. bath.
Based on the inhibitory effects found in the excipient screen, further studies with formulation slurries containing the cocrystals suspended in water were used, in which both Plasdone S-630 and Polysorbate 80 are dissolved. The formulation recipe and dissolution procedure are: bring 5 mL of simulated intestinal fluid (SIF) to 37° C., add about 6 mg of a cocrystal into 5 mL of water (at 37° C.) containing 2% Plasdone S630 and 1% Polysorbate 80 to give the formulation slurry, add the formulation slurry to the SIF, pull samples, filter, and analyze by HPLC. A control experiment was carried out in which DHEA was used instead of a cocrystal.
For FIGS. 44 and 45, to the […]-vial of SIF (20-mL vial was charged with 10 mL of water and placed in a 37° C. bath) 12.1 mg of DHEA (from sample TL876) was added. The vial was capped and shaken, and the resulting slurry was poured into the round-bottom flask. […] The supernatants were analyzed by HPLC. […]

## C[C@]12CC[C@H](O)CC1=CC[C@@H]1[C@@H]2CC[C@]2(C)C(=O)CC[C@@H]12 [DHEA polymorph form I (FI), Dehydroepiandrosterone]
[1]; 10 minutes, 30 minutes, 1 hour, 2 hours, 5 hours, overnight
  change in concentration of DHEA with time: no change in concentration of DHEA with time
[1]; after overnight experiment
  remaining solids after dissolution experiment: DHEA form S2 (monohydrate)
[1]; aqueous dissolution study
  time for transformation of anhydrate to monohydrate to be complete: about 2 hours
[1]; pH 6.8 phosphate buffer, pH 6.8, aqueous buffer, thermodynamic from solid, read-out: solubility
  solubility: ~30 µg/mL (≈ 104 µM)
[2]
  solid form after slurrying in SIF: mostly the hydrate S1 form

## C[C@]12CC[C@H](O)CC1=CC[C@@H]1[C@@H]2CC[C@]2(C)C(=O)CC[C@@H]12 [DHEA, Dehydroepiandrosterone]
[3]
  solubility thermodynamic: 120 to 130 µg/mL

## C[C@]12CC[C@H](O)CC1=CC[C@@H]1[C@@H]2CC[C@]2(C)C(=O)CC[C@@H]12 [DHEA hydrate S1, Dehydroepiandrosterone]
[1]; listed as DHEA (form S1)
  solubility: about 17 μg/mL
[1]; pH 6.8 phosphate buffer, pH 6.8, aqueous buffer, thermodynamic from solid, most stable form in the presence of water, read-out: equilibrium solubility
  solubility thermodynamic: 17 µg/mL
